Values quoted from earlier work, collected in patent publication US11191745B2, “Silica nanoparticle with an insoluble drug” (CITY OF HOPE, priority 2017, dated 2021).

Test system: plasma proteins
Conditions: systemically administered

CC(=O)O[C@H]1C(=O)[C@@]2(C)[C@H]([C@H](OC(=O)c3ccccc3)[C@]3(O)C[C@H](OC(=O)[C@H](O)[C@@H](NC(=O)c4ccccc4)c4ccccc4)C(C)=C1C3(C)C)[C@]1(OC(C)=O)CO[C@@H]1C[C@@H]2O [PTX, Paclitaxel]
drug bound to plasma proteins: more than 90%
